The values that follow come from patent publication US20260021061A1, “ARIADNE AND ANALOGS FOR THE TREATMENT OF NEUROLOGICAL AND NEUROMUSCLAR DISORDERS” (priority 2022, published 2026).

SMILES strings stand for the structures. Read-outs that look alike come from different tables or passages of the source. Some results are limits rather than exact numbers.

Data set [1] in a line: Pharmacokinetic assessment, plasma and brain. Type of data set: in vivo, male C57BL/6 mice. The following applies: SC 10 mg/kg; for Mean brain Concentration (ng/g): LLOQ 2.06 ng/mL for brain. As to the method: PK assessments were performed at Sai Life (Telangana, India) according to the following general procedure. A total twenty-seven male C57BL/6 mice were used in this study with 3 mice per time point. Animals were administered subcutaneously at 10 mg/kg dose of test article. The formulation vehicle used was 0.9% normal saline. Blood samples (approximately 60 μL) were collected under light isoflurane anesthesia (Surgivet®) from retro orbital plexus from a set of three mice at 0.08, 0.25, 0.5, 1, 2, 4, 8, 24 and 48 hr. Immediately after blood collection, plasma was harvested by centrifugation at 4000 rpm, 10 min at […] and samples were stored at −70±10° C. until bioanalysis. Following blood collection, immediately animals were sacrificed followed by cutting abdominal vena-cava and whole body was perfused from heart using 10 mL of normal saline. Brain samples were collected from set of three mice at 0.08, 0.25, 0.5, 1, 2, 4, 8, 24 and 48 hr. After isolation, brain samples were rinsed three times in ice cold normal saline (for 5-10 seconds/rinse using ˜5-10 mL normal saline in disposable petri dish for each rinse) and dried on blotting paper. Brain samples were homogenized using ice-cold phosphate buffer saline (pH−7.4). Total homogenate volume was three times the tissue weight. All homogenates were stored below −70±10° C. until bioanalysis. All samples were processed for analysis by protein precipitation method and analyzed with fit-for-purpose LC-MS/MS method (LLOQ=5.16 ng/mL for plasma and 2.06 ng/mL for brain).

For data set [2], the system named is C57BL/6J mice. Put plainly: Open field locomotion in mice. It is filed as in vivo, mouse.
Data set [3] concerns the target 5-HT7a receptor (Homo sapiens, UniProt P34969). Put plainly: 5-HTome G protein activation BRET assay. The following applies: 5-HTome screen. Background: Bioluminescence resonance energy transfer reports proximity on the nanometre scale.
Method: (§1) All BRET assays were conducted using BRET2 in HEK293T cells (ATCC CRL-11268; mycoplasma-free), which were subcultured in high-glucose DMEM (VWR) supplemented with 10% FBS (Life Technologies).
(§2) Constructs in G protein-dissociation BRET assays were derived from the codon-optimized Tango pcDNA3.1 library (Addgene) with V2tail/TEV/tTA encoding regions deleted to yield “de-Tango” constructs. […] All Gα-Rluc8, Beta, and GFP2-γ constructs were derived from the TRUPATH pcDNA5/FRT/TO library (Addgene).
(§3) Approximately 48 hours before assays, cells were transfected using a reverse transfection method and plated in 1% dFBS at an approximate density of 15,000 cells per well into poly-L-lysine-coated 384-well white assay plates (Grenier Bio-One). For G protein-dissociation assays, cells were transfected in a 1:1:1:1 ratio of receptor: Gα-Rluc8: Beta: GFP2-γ constructs. […] All transfections were prepared in Opti-MEM (Invitrogen) and used a 3:1 ratio of TransIT-2020 (Mirus) uL:ug total DNA.
On the day of the assay, plates were decanted and 20 uL of drug buffer per well (1×HBSS, 20 mM HEPES, pH 7.4) was added using a Multidrop (ThermoFisher Scientific), and plates were allowed to equilibrate at 37° C. in a humidified incubator before receiving drug stimulation. Drug dilutions of all compounds were performed in McCorvy buffer (1×HBSS, 20 mM HEPES, pH 7.4, supplemented with 0.3% BSA fatty acid free (GoldBio), and 0.03% ascorbic acid). […] Before reading, addition of coelenterazine 400a (5 uM final concentration; Nanolight Technology) was performed by the [sequence]. Immediately after, plates were read at 400 nm Rluc and fluorescent GFP2 emission at 510 nm for BRET2 at 0.8 second per well using a PheraStarFSX (BMB Lab Tech).
(§4) The BRET ratios of 510/400 luminescence were calculated per well and were plotted as a function of drug concentration using Graphpad Prism 5 or 9 (Graphpad Software Inc., San Diego, CA). Data were normalized to % positive control stimulation and analyzed using nonlinear regression “log(agonist) vs. response” to yield Emax and EC50 parameter estimates.
Data set [4] concerns the target 5-HT2B (Homo sapiens, UniProt P41595). Put plainly: G protein (Gq) dissociation BRET assay.
Method: as §1, §2, §3
On the day of the assay, plates were decanted and 20 uL of drug buffer per well (1×HBSS, 20 mM HEPES, pH 7.4) was added using a Multidrop (ThermoFisher Scientific), and plates were allowed to equilibrate at 37° C. in a humidified incubator before receiving drug stimulation. Drug dilutions of all compounds were performed in McCorvy buffer (1×HBSS, 20 mM HEPES, pH 7.4, supplemented with 0.3% BSA fatty acid free (GoldBio), and 0.03% ascorbic acid). […] Next, plates were incubated at 37° C. in a humidified incubator for 60 minutes or specified time point. Before reading, addition of coelenterazine 400a (5 uM final concentration; Nanolight Technology) was performed by the [sequence]. Immediately after, plates were read at 400 nm Rluc and fluorescent GFP2 emission at 510 nm for BRET2 at 0.8 second per well using a PheraStarFSX (BMB Lab Tech).
as §4
The target of data set [5] is T1, 5-HT2C receptor (Homo sapiens, UniProt P28335).
T1 sequence (P28335 33-458): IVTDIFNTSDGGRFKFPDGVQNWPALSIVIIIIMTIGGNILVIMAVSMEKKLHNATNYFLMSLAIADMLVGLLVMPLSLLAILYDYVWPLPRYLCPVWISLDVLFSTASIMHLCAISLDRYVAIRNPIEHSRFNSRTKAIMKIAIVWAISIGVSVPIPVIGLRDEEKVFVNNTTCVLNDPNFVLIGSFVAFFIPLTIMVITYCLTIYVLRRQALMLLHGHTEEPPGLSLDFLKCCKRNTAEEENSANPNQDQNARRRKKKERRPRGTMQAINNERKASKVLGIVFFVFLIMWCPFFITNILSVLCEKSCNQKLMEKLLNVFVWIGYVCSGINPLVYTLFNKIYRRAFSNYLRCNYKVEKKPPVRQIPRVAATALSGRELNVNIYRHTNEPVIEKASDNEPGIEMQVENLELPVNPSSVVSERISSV
Put plainly: Calcium flux assay. It is filed as cell-based. As to conditions: read-out: Emax relative to 5-HT, calcium flux. In general terms: A change in cytosolic calcium serves as a functional read-out for many receptors and channels.
Method: (§5) Therefore, an orthogonal assay measuring calcium flux was also performed for the 5-HT2 receptors (Klein et al., 2020).

The test system of data set [6] is mice. Description: Elevated plus maze (EPM). Type of data set: in vivo, mouse. The following applies: 30 minutes and 4 hours post single s.c. injection. As to the method: FIGS. 7A-D Effect of Ariadne in behavioral conflict paradigms. (a) Survival plot of effect of (R)-Ariadne (10 mg/kg) on latency to feed in the novelty suppressed feeding (NSF) test 7 days post a single drug administration. (b) Effect of 6 mg/kg and 10 mg/kg (R)-Ariadne on latency to feed in the novelty suppressed feeding (NSF) test 7 days post a single drug administration. (c) Effect of (R)-Ariadne and (±)-DOPR on the time spent in the open vs closed arms and (d) corresponding arm entries 30 minutes and 4 hours post a single subcutaneous injection.

Data set [7] deals with 5-HT2A (Homo sapiens, UniProt P28223). Description: Calcium flux assay. It is filed as cell-based.
Sequence of 5-HT2A (P28223 whole entry): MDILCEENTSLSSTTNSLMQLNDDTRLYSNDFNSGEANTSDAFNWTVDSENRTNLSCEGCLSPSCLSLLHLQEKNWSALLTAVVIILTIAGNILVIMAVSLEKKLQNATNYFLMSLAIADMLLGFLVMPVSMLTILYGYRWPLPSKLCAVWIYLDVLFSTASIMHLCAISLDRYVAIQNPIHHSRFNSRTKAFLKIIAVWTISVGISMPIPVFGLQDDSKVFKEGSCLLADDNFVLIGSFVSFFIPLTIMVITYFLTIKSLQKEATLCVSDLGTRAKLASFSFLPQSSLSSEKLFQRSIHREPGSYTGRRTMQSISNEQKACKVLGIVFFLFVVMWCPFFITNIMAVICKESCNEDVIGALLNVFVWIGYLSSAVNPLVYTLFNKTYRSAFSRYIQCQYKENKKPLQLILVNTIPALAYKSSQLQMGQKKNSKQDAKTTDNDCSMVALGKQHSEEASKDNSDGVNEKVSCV
Method: as §5

Sequence of 5-HT2B (P41595 whole entry): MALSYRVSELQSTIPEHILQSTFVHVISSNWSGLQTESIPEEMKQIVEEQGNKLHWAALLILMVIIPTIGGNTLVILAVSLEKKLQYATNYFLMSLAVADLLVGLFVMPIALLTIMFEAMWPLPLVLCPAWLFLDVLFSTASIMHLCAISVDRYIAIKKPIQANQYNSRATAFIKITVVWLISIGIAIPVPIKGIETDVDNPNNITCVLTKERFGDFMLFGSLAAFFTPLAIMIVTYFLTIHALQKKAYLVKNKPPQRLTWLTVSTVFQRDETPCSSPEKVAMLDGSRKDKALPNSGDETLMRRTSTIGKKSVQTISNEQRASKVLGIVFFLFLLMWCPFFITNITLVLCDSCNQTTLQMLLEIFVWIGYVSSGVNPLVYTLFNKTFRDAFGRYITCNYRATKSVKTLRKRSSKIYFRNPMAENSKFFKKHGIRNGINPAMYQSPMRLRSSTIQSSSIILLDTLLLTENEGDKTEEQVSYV
Sequence of 5-HT7a receptor (P34969 1-445 isoform P34969-2): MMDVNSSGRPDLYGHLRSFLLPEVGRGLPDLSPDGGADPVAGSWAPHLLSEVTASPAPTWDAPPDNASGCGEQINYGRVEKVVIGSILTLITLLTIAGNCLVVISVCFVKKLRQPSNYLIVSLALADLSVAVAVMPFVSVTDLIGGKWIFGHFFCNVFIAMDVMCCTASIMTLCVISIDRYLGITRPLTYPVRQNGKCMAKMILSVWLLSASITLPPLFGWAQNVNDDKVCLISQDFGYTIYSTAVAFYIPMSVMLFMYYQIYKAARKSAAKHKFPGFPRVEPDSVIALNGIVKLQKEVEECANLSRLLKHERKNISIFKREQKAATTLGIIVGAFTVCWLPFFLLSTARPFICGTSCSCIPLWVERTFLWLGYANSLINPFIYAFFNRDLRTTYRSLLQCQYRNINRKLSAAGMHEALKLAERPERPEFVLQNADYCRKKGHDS

In general, Tmax refers to the time at which the peak concentration occurs. Turning to `CCC(N)Cc1cc(OC)c(C(F)(F)F)cc1OC` (racemic) [Compound 29, 1-(2,5-dimethoxy-4-(trifluoromethyl)phenyl)butan-2-amine], the “Mean brain Concentration (ng/g)” value in data set [1] (24 hr) and in data set [1] (48 hr) was “BLQ” throughout. Moreover, the “Mean plasma Concentration (ng/mL)” value in data set [1] (24 hr, LLOQ 5.16 ng/mL) is “BLQ”; in data set [1] (48 hr, LLOQ 5.16 ng/mL) it was “BLQ”. Moreover, the Kp at 0.083 h in data set [1] (male, C57BL/6, mouse, brain and plasma, 0.083 hr, read-out: Brain/Plasma ratio) was found to be 4.66. In addition, the Kp at 0.25 h in data set [1] (male, C57BL/6, mouse, brain and plasma, 0.25 hr, read-out: Brain/Plasma ratio) stood at 8.91. In addition, in data set [1] (male, C57BL/6, mouse, brain and plasma, 0.5 hr, read-out: Brain/Plasma ratio), the Kp at 0.5 h is 8.93. The Kp at 1 h in data set [1] (male, C57BL/6, mouse, brain and plasma, 1 hr, read-out: Brain/Plasma ratio) was 18.1. Further, the Kp at 2 h in data set [1] (male, C57BL/6, mouse, brain and plasma, 2 hr, read-out: Brain/Plasma ratio) is 18.2. Also, the Kp at 4 h in data set [1] (male, C57BL/6, mouse, brain and plasma, 4 hr, read-out: Brain/Plasma ratio) turned out to be 15.2. Also, the Kp at 8 h in data set [1] (male, C57BL/6, mouse, brain and plasma, 8 hr, read-out: Brain/Plasma ratio) was determined as 12.7. The concentration at 0.083 hr in data set [1] (male, C57BL/6, mouse, brain, 0.083 hr, read-out: Mean brain Concentration) was 2010 ng/g; in data set [1] (male, C57BL/6, mouse, plasma, 0.083 hr, read-out: Mean plasma Concentration) it was 431 ng/mL. Moreover, the concentration at 0.25 hr in data set [1] (male, C57BL/6, mouse, brain, 0.25 hr, read-out: Mean brain Concentration) turned out to be 4160 ng/g; in data set [1] (male, C57BL/6, mouse, plasma, 0.25 hr, read-out: Mean plasma Concentration), 467 ng/mL. Also, the concentration at 0.5 hr in data set [1] (male, C57BL/6, mouse, brain, 0.5 hr, read-out: Mean brain Concentration) was found to be 3770 ng/g; in data set [1] (male, C57BL/6, mouse, plasma, 0.5 hr, read-out: Mean plasma Concentration), 422 ng/mL. The concentration at 1 hr in data set [1] (male, C57BL/6, mouse, brain, 1 hr, read-out: Mean brain Concentration) stood at 3900 ng/g; in data set [1] (male, C57BL/6, mouse, plasma, 1 hr, read-out: Mean plasma Concentration) it was 216 ng/mL. Further, the concentration at 2 hr in data set [1] (male, C57BL/6, mouse, brain, 2 hr, read-out: Mean brain Concentration) came out at 1740 ng/g; in data set [1] (male, C57BL/6, mouse, plasma, 2 hr, read-out: Mean plasma Concentration) it was 95.5 ng/mL. For the same compound, the concentration at 4 hr was 787 ng/g in data set [1] (male, C57BL/6, mouse, brain, 4 hr, read-out: Mean brain Concentration) and 51.9 ng/mL in data set [1] (male, C57BL/6, mouse, plasma, 4 hr, read-out: Mean plasma Concentration). The concentration at 8 hr was 170 ng/g in data set [1] (male, C57BL/6, mouse, brain, 8 hr, read-out: Mean brain Concentration) and 13.4 ng/mL in data set [1] (male, C57BL/6, mouse, plasma, 8 hr, LLOQ 5.16 ng/mL, read-out: Mean plasma Concentration). The Cmax stood at 4160 ng/g in data set [1] (male, C57BL/6, mouse, brain, read-out: Cmax (ng/g), brain) and 467 ng/mL in data set [1] (male, C57BL/6, mouse, plasma, read-out: Cmax (ng/mL), plasma). The half-life is 1.79 h in data set [1] (male, C57BL/6, mouse, brain, read-out: T1/2 (hr), brain (converted)) and 2.11 h in data set [1] (male, C57BL/6, mouse, plasma, read-out: T1/2 (hr), plasma (converted)). In addition, the Tmax in data set [1] (male, C57BL/6, mouse, brain, read-out: Tmax (hr), brain) worked out at 0.25 h; in data set [1] (male, C57BL/6, mouse, plasma, read-out: Tmax (hr), plasma), 0.25 h. Moreover, in data set [1] (male, C57BL/6, mouse, plasma, read-out: AUClast (hr*ng/mL), plasma), the AUC(0-t) came to 798 ng·h/mL.

One may read the EC50 as the concentration at which the effect is half-maximal. Broadly, the Emax is the maximal effect, on the per cent scale that the assay sets. For the compound `CC[C@@H](N)Cc1cc(OC)c(C)cc1OC` [(R)-Ariadne], the “general locomotion in novel environment” value is listed as “minor sedative effect” in data set [2] (10 mg/kg, s.c. (peak HTR dose)) and “marked sedation” in data set [2] (30 mg/kg). Besides, the “time in the center of the arena” value in data set [2] (open field) is reported as “trend for spending less time in the center”. In addition, in data set [3], the agonist activity entry is recorded as “Little to no agonist activity”. The concentration giving a half-maximal response (EC50) in data set [4] (EC50, Gq dissociation, Gq dissociation BRET) is 739 nM; in data set [4] (EC50, agonist activity, 5-HTome screen) it was less than 1000 nM; in data set [7] it was 30 nM. The Emax in data set [4] (read-out: Emax, agonist activity) was greater than 70%; in data set [5] it was 60%; in data set [7] (read-out: Emax relative to 5-HT, calcium flux) it was 96%. Also, in data set [6], the “entries and time spent in the open arms” value is reported as “acute anxiogenic-like effect”.
